# Test results as given in patent US9695155B2, “Herbicidal substituted pyrimidinyloxy benzene compounds” (E. I. DU PONT DE NEMOURS AND COMPANY, priority 2013, dated 2017).
# Columns and labels:
# giant foxtail [1] = assay: Test A postemergence; type: in vivo, Setaria faberii; conditions: 0 to 100 scale where 0 is no effect and 100 is complete control
# Method in brief: (§1)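 Visual injury scored 0–100 (100 = complete control) against untreated controls about 10 days after treatment in a greenhouse. Test chemicals, formulated with surfactant in non-phytotoxic solvent, were sprayed on soil preemergence or on 2-10 cm, one- to two-leaf plants postemergence.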
# pigweed [2] = assay: Test A postemergence; type: in vivo, Amaranthus retroflexus; conditions: 0 to 100 scale where 0 is no effect and 100 is complete control
# Method in brief: as §1
# corn [3] = assay: Test A postemergence; type: in vivo, Zea mays; conditions: 0 to 100 scale where 0 is no effect and 100 is complete control
# Method in brief: as §1
# galium = assay: Test C preemergence; type: in vivo, Galium aparine; conditions: for Galium plant response rating: preemergence; for Plant response rating, Galium: Preemergence, 31 g ai/ha, scale 0 to 100, 0 no effect, 100 complete control
# Method in brief: (§2)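 Seeds were sown in loam–sand blend and sprayed preemergence, while plants at 1- to 4-leaf stage (2–18 cm) in peat-based medium received postemergence sprays; test chemicals were formulated in a non-phytotoxic solvent with surfactant. After 13–15 days in a greenhouse, injury was rated visually against controls, 0 (no effect) to 100 (complete control).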
# corn [4] = assay: Test C preemergence; type: in vivo, Zea mays; conditions: for Corn plant response rating: preemergence; for Plant response rating, Corn: Preemergence, 31 g ai/ha, scale 0 to 100, 0 no effect, 100 complete control
# Method in brief: as §2
# lambsquarters [5] = assay: Test C preemergence; type: in vivo, Chenopodium album; conditions: for Lambsquarters plant response rating: preemergence; for Plant response rating, Lambsquarters: Preemergence, 31 g ai/ha, scale 0 to 100, 0 no effect, 100 complete control
# Method in brief: as §2
# morningglory [6] = assay: Test C preemergence; type: in vivo, Ipomoea coccinea; conditions: for Morningglory plant response rating: preemergence; for Plant response rating, Morningglory: Preemergence, 31 g ai/ha, scale 0 to 100, 0 no effect, 100 complete control
# Method in brief: as §2
# ragweed [7] = assay: Test C preemergence; type: in vivo, Ambrosia elatior; conditions: for Ragweed plant response rating: preemergence; for Plant response rating, Ragweed: Preemergence, 31 g ai/ha, scale 0 to 100, 0 no effect, 100 complete control
# Method in brief: as §2
# velvetleaf = assay: Test C preemergence; type: in vivo, Abutilon theophrasti; conditions: for Velvetleaf plant response rating: preemergence; for Plant response rating, Velvetleaf: Preemergence, 31 g ai/ha, scale 0 to 100, 0 no effect, 100 complete control
# Method in brief: as §2
# large (Lg) crabgrass = assay: Test C postemergence; type: in vivo, Digitaria sanguinalis; conditions: for Crabgrass, Large plant response rating: 16 g ai/ha, visual rating; for Crabgrass, Large plant response rating / Plant response rating (0 to 100), Crabgrass, Large: postemergence; for Crabgrass, Large plant response rating / Plant response rating, Crabgrass, Large: scale 0 to 100 (0 no effect, 100 complete control); for Plant response rating (0 to 100), Crabgrass, Large: 125 g ai/ha; for Plant response rating, Crabgrass, Large: Postemergence
# Method in brief: as §2
# giant foxtail [8] = assay: Test C postemergence; type: in vivo, Setaria faberii; conditions: for Foxtail, Giant plant response rating: 16 g ai/ha, visual rating; for Foxtail, Giant plant response rating / Plant response rating (0 to 100), Foxtail, Giant: postemergence; for Foxtail, Giant plant response rating / Plant response rating, Foxtail, Giant: scale 0 to 100 (0 no effect, 100 complete control); for Plant response rating (0 to 100), Foxtail, Giant: 125 g ai/ha; for Plant response rating, Foxtail, Giant: Postemergence
# Method in brief: as §2
# lambsquarters [9] = assay: Test C postemergence; type: in vivo, Chenopodium album; conditions: for Plant response rating (0 to 100), Lambsquarters: 125 g ai/ha, postemergence; for Plant response rating, Lambsquarters: Postemergence, scale 0 to 100 (0 no effect, 100 complete control)
# Method in brief: as §2
# morningglory [10] = assay: Test C postemergence; type: in vivo, Ipomoea coccinea; conditions: for Plant response rating (0 to 100), Morningglory: 125 g ai/ha, postemergence; for Plant response rating, Morningglory: Postemergence, scale 0 to 100 (0 no effect, 100 complete control)
# Method in brief: as §2
# pigweed [11] = assay: Test C postemergence; type: in vivo, Amaranthus retroflexus; conditions: for Plant response rating (0 to 100), Pigweed: 125 g ai/ha, postemergence; for Plant response rating, Pigweed: Postemergence, scale 0 to 100 (0 no effect, 100 complete control)
# Method in brief: as §2
# ragweed [12] = assay: Test C postemergence; type: in vivo, Ambrosia elatior; conditions: for Plant response rating (0 to 100), Ragweed: 125 g ai/ha, postemergence; for Plant response rating, Ragweed: Postemergence, scale 0 to 100 (0 no effect, 100 complete control)
# Method in brief: as §2
# soybean = assay: Test C postemergence; type: in vivo, Glycine max; conditions: for Plant response rating (0 to 100), Soybean: 125 g ai/ha, postemergence; for Plant response rating, Soybean: Postemergence, scale 0 to 100 (0 no effect, 100 complete control)
# Method in brief: as §2
# waterhemp = assay: Test C postemergence; type: in vivo, Amaranthus rudis; conditions: for Plant response rating (0 to 100), Waterhemp: 125 g ai/ha, postemergence; for Plant response rating, Waterhemp: Postemergence, scale 0 to 100 (0 no effect, 100 complete control)
# Method in brief: as §2
# [13] = 16 g ai/ha, scale 0 to 100 (0 no effect, 100 complete control)
# [14] = 62 g ai/ha, scale 0 (no effect) to 100 (complete control)
# [15] = 125 g ai/ha, scale 0 (no effect) to 100 (complete control)
structure (smiles),measurement,setting,value
N#Cc1cccc(Oc2ncc(F)cn2)c1-n1cc(I)cn1 [Compound 86],"Plant response rating, Foxtail, Giant",giant foxtail [1]; 125 g ai/ha,90
same,"Plant response rating, Foxtail, Giant",giant foxtail [1]; 500 g ai/ha,100
same,"Plant response rating, Pigweed",pigweed [2]; 125 g ai/ha,100
same,"Plant response rating, Pigweed",pigweed [2]; 500 g ai/ha,100
same,"Plant response rating, Corn",corn [3]; 125 g ai/ha,50
same,"Plant response rating, Corn",corn [3]; 500 g ai/ha,100
same,Galium plant response rating,galium; [13],90
same,Galium plant response rating,galium; [14],98
same,Galium plant response rating,galium; [15],90
same,"Plant response rating, Galium",galium,80
same,Corn plant response rating,corn [4]; [13],0
same,Corn plant response rating,corn [4]; [14],30
same,Corn plant response rating,corn [4]; [15],80
same,"Plant response rating, Corn",corn [4],25
same,Lambsquarters plant response rating,lambsquarters [5]; [13],100
same,Lambsquarters plant response rating,lambsquarters [5]; [14],100
same,Lambsquarters plant response rating,lambsquarters [5]; [15],100
same,"Plant response rating, Lambsquarters",lambsquarters [5],100
same,Morningglory plant response rating,morningglory [6]; [13],10
same,Morningglory plant response rating,morningglory [6]; [14],60
same,Morningglory plant response rating,morningglory [6]; [15],100
same,"Plant response rating, Morningglory",morningglory [6],25
same,Ragweed plant response rating,ragweed [7]; [13],5
same,Ragweed plant response rating,ragweed [7]; [14],100
same,Ragweed plant response rating,ragweed [7]; [15],100
same,"Plant response rating, Ragweed",ragweed [7],20
same,Velvetleaf plant response rating,velvetleaf; [13],20
same,Velvetleaf plant response rating,velvetleaf; [14],100
same,Velvetleaf plant response rating,velvetleaf; [15],100
same,"Plant response rating, Velvetleaf",velvetleaf,50
same,"Crabgrass, Large plant response rating",large (Lg) crabgrass; 13 to 15 days,5
same,"Plant response rating (0 to 100), Crabgrass, Large",large (Lg) crabgrass,5
same,"Plant response rating, Crabgrass, Large","large (Lg) crabgrass; 31 g ai/ha, 13 to 15 days",5
same,"Plant response rating, Crabgrass, Large",large (Lg) crabgrass; 62 g ai/ha,5
same,"Foxtail, Giant plant response rating",giant foxtail [8]; 13 to 15 days,5
same,"Plant response rating (0 to 100), Foxtail, Giant",giant foxtail [8],25
same,"Plant response rating, Foxtail, Giant","giant foxtail [8]; 31 g ai/ha, 13 to 15 days",5
same,"Plant response rating, Foxtail, Giant",giant foxtail [8]; 62 g ai/ha,15
same,"Plant response rating (0 to 100), Lambsquarters",lambsquarters [9],85
same,"Plant response rating, Lambsquarters","lambsquarters [9]; 31 g ai/ha, 13 to 15 days",45
same,"Plant response rating, Lambsquarters",lambsquarters [9]; 62 g ai/ha,65
same,"Plant response rating (0 to 100), Morningglory",morningglory [10],85
same,"Plant response rating, Morningglory","morningglory [10]; 31 g ai/ha, 13 to 15 days",80
same,"Plant response rating, Morningglory",morningglory [10]; 62 g ai/ha,85
same,"Plant response rating (0 to 100), Pigweed",pigweed [11],80
same,"Plant response rating, Pigweed","pigweed [11]; 31 g ai/ha, 13 to 15 days",65
same,"Plant response rating, Pigweed",pigweed [11]; 62 g ai/ha,65
same,"Plant response rating (0 to 100), Ragweed",ragweed [12],85
same,"Plant response rating, Ragweed","ragweed [12]; 31 g ai/ha, 13 to 15 days",50
same,"Plant response rating, Ragweed",ragweed [12]; 62 g ai/ha,55
same,"Plant response rating (0 to 100), Soybean",soybean,75
same,"Plant response rating, Soybean","soybean; 31 g ai/ha, 13 to 15 days",60
same,"Plant response rating, Soybean",soybean; 62 g ai/ha,70
same,"Plant response rating (0 to 100), Waterhemp",waterhemp,75
same,"Plant response rating, Waterhemp","waterhemp; 31 g ai/ha, 13 to 15 days",70
same,"Plant response rating, Waterhemp",waterhemp; 62 g ai/ha,60
N#Cc1cccc(Oc2ncc(Br)cn2)c1-n1cc(I)cn1 [Compound 88],"Plant response rating, Foxtail, Giant",giant foxtail [1]; 125 g ai/ha,50
same,"Plant response rating, Foxtail, Giant",giant foxtail [1]; 500 g ai/ha,80
same,"Plant response rating, Pigweed",pigweed [2]; 125 g ai/ha,100
same,"Plant response rating, Pigweed",pigweed [2]; 500 g ai/ha,100
same,"Plant response rating, Corn",corn [3]; 125 g ai/ha,30
same,"Plant response rating, Corn",corn [3]; 500 g ai/ha,50
same,Galium plant response rating,galium; [13],0
same,Galium plant response rating,galium; [14],90
same,Galium plant response rating,galium; [15],80
same,"Plant response rating, Galium",galium,50
same,Corn plant response rating,corn [4]; [13],5
same,Corn plant response rating,corn [4]; [14],5
same,Corn plant response rating,corn [4]; [15],15
same,"Plant response rating, Corn",corn [4],5
same,Lambsquarters plant response rating,lambsquarters [5]; [13],70
same,Lambsquarters plant response rating,lambsquarters [5]; [14],100
same,Lambsquarters plant response rating,lambsquarters [5]; [15],100
same,"Plant response rating, Lambsquarters",lambsquarters [5],100
same,Morningglory plant response rating,morningglory [6]; [13],0
same,Morningglory plant response rating,morningglory [6]; [14],40
same,Morningglory plant response rating,morningglory [6]; [15],90
same,"Plant response rating, Morningglory",morningglory [6],5
same,Ragweed plant response rating,ragweed [7]; [13],0
same,Ragweed plant response rating,ragweed [7]; [14],5
same,Ragweed plant response rating,ragweed [7]; [15],60
same,"Plant response rating, Ragweed",ragweed [7],0
same,Velvetleaf plant response rating,velvetleaf; [13],15
same,Velvetleaf plant response rating,velvetleaf; [14],100
same,Velvetleaf plant response rating,velvetleaf; [15],100
same,"Plant response rating, Velvetleaf",velvetleaf,98
same,"Crabgrass, Large plant response rating",large (Lg) crabgrass; 13 to 15 days,5
same,"Plant response rating (0 to 100), Crabgrass, Large",large (Lg) crabgrass,10
same,"Plant response rating, Crabgrass, Large","large (Lg) crabgrass; 31 g ai/ha, 13 to 15 days",5
same,"Plant response rating, Crabgrass, Large",large (Lg) crabgrass; 62 g ai/ha,10
same,"Foxtail, Giant plant response rating",giant foxtail [8]; 13 to 15 days,20
same,"Plant response rating (0 to 100), Foxtail, Giant",giant foxtail [8],40
same,"Plant response rating, Foxtail, Giant","giant foxtail [8]; 31 g ai/ha, 13 to 15 days",35
same,"Plant response rating, Foxtail, Giant",giant foxtail [8]; 62 g ai/ha,30
same,"Plant response rating (0 to 100), Lambsquarters",lambsquarters [9],75
same,"Plant response rating, Lambsquarters","lambsquarters [9]; 31 g ai/ha, 13 to 15 days",75
same,"Plant response rating, Lambsquarters",lambsquarters [9]; 62 g ai/ha,60
same,"Plant response rating (0 to 100), Morningglory",morningglory [10],95
same,"Plant response rating, Morningglory","morningglory [10]; 31 g ai/ha, 13 to 15 days",90
same,"Plant response rating, Morningglory",morningglory [10]; 62 g ai/ha,85
same,"Plant response rating (0 to 100), Pigweed",pigweed [11],90
same,"Plant response rating, Pigweed","pigweed [11]; 31 g ai/ha, 13 to 15 days",85
same,"Plant response rating, Pigweed",pigweed [11]; 62 g ai/ha,85
same,"Plant response rating (0 to 100), Ragweed",ragweed [12],60
same,"Plant response rating, Ragweed","ragweed [12]; 31 g ai/ha, 13 to 15 days",55
same,"Plant response rating, Ragweed",ragweed [12]; 62 g ai/ha,55
same,"Plant response rating (0 to 100), Soybean",soybean,65
same,"Plant response rating, Soybean","soybean; 31 g ai/ha, 13 to 15 days",65
same,"Plant response rating, Soybean",soybean; 62 g ai/ha,95
same,"Plant response rating (0 to 100), Waterhemp",waterhemp,90
same,"Plant response rating, Waterhemp","waterhemp; 31 g ai/ha, 13 to 15 days",75
same,"Plant response rating, Waterhemp",waterhemp; 62 g ai/ha,85
